14 molecules from patent US20230117034A1, “PYRAZOLOTRIAZINES” (Bayer Aktiengesellschaft, priority 2019, published 2023) can be followed below.

The structures appear in SMILES notation.

Assay [1] deals with CAL-120, human breast adenocarcinoma cells. In words: Proliferation assay CAL-120 (crystal violet, 4 days). Format: cell-based. To be noted: Homo sapiens, CAL-120, 96 h, CAL-120 cells, median, read-out: Prolif-CAL-120, IC50-[mol/l] (median). Summed up:
(§1)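 CAL-120 or MDA-MB-231 cells grown 24 h, then exposed 4 days to compound (0.01–10 micromol/L, 0.1% DMSO). Crystal violet staining, absorbance at 595 nm, normalised to a zero-point plate (0%) and untreated cells (100%); IC50 by 4-parameter fit.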

For assay [2], the system named is MDA-MB-231, human breast cancer cells. In words: Proliferation assay MDA-MB-231 (crystal violet, 4 days). Format: cell-based. The conditions noted are these: Homo sapiens, MDA-MB-231, 96 h, MDA-MB-231 cells, median, read-out: Prolif-MDA MB-231, IC50-[mol/l] (median). Summed up:
as §1

The test system of assay [3] is BRCA1 mRNA expression in MDA-MB-231 cells. Put plainly: qRT-PCR assay: BRCA1 mRNA expression in MDA-MB-231. The format is cell-based, human. The conditions noted are these: Homo sapiens, MDA-MB-231, Inhibition of BRCA1 mRNA expression in MDA-MB-231 cells; median; read-out: RTqPCR-MDA-MB-231, IC50, BRCA1 (median). Summed up:
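MDA-MB-231 cells, 200,000/well, treated 24 h after plating with continuous 24 h compound exposure. RNA extracted, 600 ng reverse-transcribed, BRCA1 measured by RT-qPCR normalized to GAPDH.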

Assay [4] deals with T1, CDK12 (nuclear staining in CAL-120 cells) (Homo sapiens, UniProt Q9NYV4).
T1 construct: endogenous in cells; host or cells: CAL-120 human breast cancer cells (DSMZ ACC 459)
T1 sequence (Q9NYV4 whole entry): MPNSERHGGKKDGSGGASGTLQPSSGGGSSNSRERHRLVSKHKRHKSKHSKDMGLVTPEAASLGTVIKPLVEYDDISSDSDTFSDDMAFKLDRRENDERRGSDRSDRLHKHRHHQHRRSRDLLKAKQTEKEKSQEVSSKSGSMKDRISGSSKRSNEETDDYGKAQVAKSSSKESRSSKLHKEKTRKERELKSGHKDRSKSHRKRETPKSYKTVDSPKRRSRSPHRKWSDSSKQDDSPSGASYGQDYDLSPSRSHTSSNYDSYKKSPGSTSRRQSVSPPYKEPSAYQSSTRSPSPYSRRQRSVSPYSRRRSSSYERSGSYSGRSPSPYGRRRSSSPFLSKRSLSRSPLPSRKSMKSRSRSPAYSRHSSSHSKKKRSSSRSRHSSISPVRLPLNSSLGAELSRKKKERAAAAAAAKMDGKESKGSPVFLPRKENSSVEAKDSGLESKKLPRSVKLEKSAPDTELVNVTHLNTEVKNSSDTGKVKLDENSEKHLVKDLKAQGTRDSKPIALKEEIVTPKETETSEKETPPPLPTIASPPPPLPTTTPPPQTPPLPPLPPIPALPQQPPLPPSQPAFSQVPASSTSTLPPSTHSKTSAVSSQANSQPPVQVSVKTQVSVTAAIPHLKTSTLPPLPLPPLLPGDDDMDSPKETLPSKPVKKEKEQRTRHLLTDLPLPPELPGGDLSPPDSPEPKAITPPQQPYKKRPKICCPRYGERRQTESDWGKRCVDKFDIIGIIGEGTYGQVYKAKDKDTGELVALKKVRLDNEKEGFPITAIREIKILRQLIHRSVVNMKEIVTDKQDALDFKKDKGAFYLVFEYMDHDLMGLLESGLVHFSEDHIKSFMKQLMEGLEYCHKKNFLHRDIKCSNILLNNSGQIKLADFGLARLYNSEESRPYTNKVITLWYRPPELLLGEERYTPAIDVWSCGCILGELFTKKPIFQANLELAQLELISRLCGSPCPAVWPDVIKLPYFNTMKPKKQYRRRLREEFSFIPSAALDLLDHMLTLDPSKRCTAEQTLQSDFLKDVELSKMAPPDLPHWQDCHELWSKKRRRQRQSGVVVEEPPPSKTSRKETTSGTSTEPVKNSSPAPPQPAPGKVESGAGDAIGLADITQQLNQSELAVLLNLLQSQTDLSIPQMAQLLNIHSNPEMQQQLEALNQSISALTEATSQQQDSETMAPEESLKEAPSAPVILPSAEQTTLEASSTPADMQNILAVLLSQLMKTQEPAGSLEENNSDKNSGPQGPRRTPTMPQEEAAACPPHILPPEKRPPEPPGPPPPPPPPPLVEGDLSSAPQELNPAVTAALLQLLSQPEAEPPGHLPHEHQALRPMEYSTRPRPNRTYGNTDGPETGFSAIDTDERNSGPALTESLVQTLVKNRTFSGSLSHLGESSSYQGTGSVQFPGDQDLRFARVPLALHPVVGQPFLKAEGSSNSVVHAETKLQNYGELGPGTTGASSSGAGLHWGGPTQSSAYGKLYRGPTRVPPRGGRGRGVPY
T1 sequence (O75909 whole entry partner): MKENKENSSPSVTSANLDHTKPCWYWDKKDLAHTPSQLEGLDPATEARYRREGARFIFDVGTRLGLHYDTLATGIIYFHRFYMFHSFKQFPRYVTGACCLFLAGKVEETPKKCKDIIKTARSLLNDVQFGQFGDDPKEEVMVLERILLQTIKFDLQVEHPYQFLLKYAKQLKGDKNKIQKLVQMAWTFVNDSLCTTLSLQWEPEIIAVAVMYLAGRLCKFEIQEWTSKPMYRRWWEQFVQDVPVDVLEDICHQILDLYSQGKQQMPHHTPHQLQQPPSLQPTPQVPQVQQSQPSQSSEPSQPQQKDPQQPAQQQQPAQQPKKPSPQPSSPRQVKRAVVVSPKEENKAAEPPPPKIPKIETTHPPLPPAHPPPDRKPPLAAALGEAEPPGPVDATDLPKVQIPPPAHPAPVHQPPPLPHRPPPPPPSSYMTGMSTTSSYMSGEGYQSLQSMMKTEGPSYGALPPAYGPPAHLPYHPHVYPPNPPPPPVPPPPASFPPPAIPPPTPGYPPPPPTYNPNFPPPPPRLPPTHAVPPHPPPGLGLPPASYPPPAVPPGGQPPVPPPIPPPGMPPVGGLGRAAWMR
Put plainly: CDK12 nuclear protein level: immunofluorescence/high content analysis (CAL-120). The format is cell-based. To be noted: for DC50: CAL-120 cells, 24 h, immunofluorescence, 50% reduction of nuclear CDK12 staining intensity, median, read-out: CDK12 degradation IF, DC50- [mol/l] (median); for (IC50 CDK12 high ATP) to (Degradation DC50 CDK12) ratio: ratio of IC50 CDK12 high ATP kinase assay to DC50 CDK12 degradation (IF, CAL-120). Put shortly: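 CAL-120 cells were treated with compound for 24 h at 37 °C, fixed with PFA and immunostained for CDK12. Nuclear CDK12 intensity was quantified by automated image analysis and normalized to DMSO and control. DC50 is the concentration giving 50% reduction of nuclear staining.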

On to `CC(C)(O)CNc1nc(NCc2nc3ccccc3[nH]2)n2ncc(Br)c2n1` [Example 229, 1-[(4-{[(1H-benzimidazol-2-yl)methyl]amino}-8-bromopyrazolo[1,5-a][1,3,5]triazin-2-yl)amino]-2-methylpropan-2-ol], for which the IC50 was determined as 39.4 nM in assay [1], 42.8 nM in assay [2] and 10.8 nM in assay [3]. Besides, the DC50 in assay [4] came out at 6.38 nM. For the same molecule, the “(IC50 CDK12 high ATP) to (Degradation DC50 CDK12) ratio” value in assay [4] was found to be 862.

Regarding `COc1ccc2[nH]c(CNc3nc(N4C[C@@H](C)N[C@@H](C)C4)nc4c(Br)cnn34)nc2c1` [Example 205, 8-bromo-2-[(3R,5S)-3,5-dimethylpiperazin-1-yl]-N-[(5-methoxy-1 H-benzimidazol-2-yl)methyl]pyrazolo[1,5-a][1,3,5]triazin-4-amine], the IC50 in assay [1] amounted to 1.73 nM; in assay [2], 4.2 nM; in assay [3], 1.81 nM. Also, the DC50 in assay [4] came out at 0.506 nM. Moreover, in assay [4], the “(IC50 CDK12 high ATP) to (Degradation DC50 CDK12) ratio” value was determined as 15749.

On to `Fc1cccc2[nH]c(CNc3nc(N4C[C@@H]5C[C@H]4CO5)nc4c(C5CC5)cnn34)nc12` [Example 183, 8-cyclopropyl-N-[(4-fluoro-1H-benzimidazol-2-yl)methyl]-2-[(1S,4S)-2-oxa-5-azabicyclo[2.2.1]heptan-5-yl]pyrazolo[1,5-a][1,3,5]triazin-4-amine], for which the figures for the IC50 in assay [1], in assay [2] and in assay [3] were 27.4 nM, 56 nM and 4.17 nM, respectively. In assay [4], the DC50 is 1.65 nM. For the same molecule, the “(IC50 CDK12 high ATP) to (Degradation DC50 CDK12) ratio” value in assay [4] worked out at 6199.

`C[C@@H]1CN(c2nc(NCc3nc4c(F)c(F)ccc4[nH]3)n3ncc(C4CC4)c3n2)C[C@H](C)N1` [Example 170, 8-cyclopropyl-N-[(4,5-difluoro-1H-benzimidazol-2-yl)methyl]-2-[(3R,5S)-3,5-dimethylpiperazin-1-yl]pyrazolo[1,5-a][1,3,5]triazin-4-amine]: the figures for the IC50 in assay [1], in assay [2] and in assay [3] were 1 nM, 2.25 nM and 0.419 nM, respectively. For the same molecule, the DC50 in assay [4] came to 0.574 nM. In addition, the “(IC50 CDK12 high ATP) to (Degradation DC50 CDK12) ratio” value in assay [4] is 5303.

For the molecule `Cc1ccc2[nH]c(CNc3nc(N4C[C@H]5C[C@@H]4CO5)nc4c(C5CC5)cnn34)nc2c1` [Example 196, 8-cyclopropyl-N-[(5-methyl-1H-benzimidazol-2-yl)methyl]-2-[(1R,4R)-2-oxa-5-azabicyclo[2.2.1]heptan-5-yl]pyrazolo[1,5-a][1,3,5]triazin-4-amine], the results for the IC50 in assay [1], in assay [2] and in assay [3] were 8.05 nM, 12.9 nM and 4.27 nM, respectively. Moreover, in assay [4], the DC50 was determined as 1.9 nM. Moreover, in assay [4], the “(IC50 CDK12 high ATP) to (Degradation DC50 CDK12) ratio” value was determined as 8068.

Take `Fc1cccc2[nH]c(CNc3nc(N4CCOCC4)nc4c(C5CC5)cnn34)nc12` [Example 188, 8-cyclopropyl-N-[(4-fluoro-1H-benzimidazol-2-yl)methyl]-2-(morpholin-4-yl)pyrazolo[1,5-a][1,3,5]triazin-4-amine]: the IC50 in assay [1] came out at 17.6 nM; in assay [2] it was 16.1 nM; in assay [3], 3.06 nM. For the same molecule, in assay [4], the DC50 came to 1.26 nM. Moreover, the “(IC50 CDK12 high ATP) to (Degradation DC50 CDK12) ratio” value in assay [4] is 460.

With `CN1CC[C@@H]2CN(c3nc(NCc4nc5ccccc5[nH]4)n4ncc(Br)c4n3)C[C@@H]21` [Example 217, N-[(1H-benzimidazol-2-yl)methyl]-8-bromo-2-[(3aR,6aR)-1-methylhexahydropyrrolo[3,4-b]pyrrol-5 (1H)-yl]pyrazolo[1,5-a][1,3,5]triazin-4-amine], the IC50 came out at 44.9 nM in assay [1], 97.9 nM in assay [2] and 33.5 nM in assay [3]. The DC50 in assay [4] came out at 8.64 nM. For the same molecule, the “(IC50 CDK12 high ATP) to (Degradation DC50 CDK12) ratio” value in assay [4] was over 2315.

For `CN(C)C1CCN(c2nc(NCc3nc4ccccc4[nH]3)n3ncc(Br)c3n2)CC1` [Example 201, N-[(1H-benzimidazol-2-yl)methyl]-8-bromo-2-[4-(dimethylamino)piperidin-1-yl]pyrazolo[1,5-a][1,3,5]triazin-4-amine], the figures for the IC50 in assay [1], in assay [2] and in assay [3] were 126 nM, 290 nM and 145 nM, respectively. In assay [4], the DC50 turned out to be 61.3 nM. Further, in assay [4], the “(IC50 CDK12 high ATP) to (Degradation DC50 CDK12) ratio” value is on record as over 326.

In the case of `Cc1ccc2[nH]c(CNc3nc(N4CCN(C)CC4)nc4c(C5CC5)cnn34)nc2c1` [Example 210, 8-cyclopropyl-N-[(5-methyl-1H-benzimidazol-2-yl)methyl]-2-(4-methylpiperazin-1-yl)pyrazolo[1,5-a][1,3,5]triazin-4-amine], the IC50 amounted to 4.66 nM in assay [1], 8.06 nM in assay [2] and 2.27 nM in assay [3]. Further, the DC50 in assay [4] worked out at 1.41 nM. For the same molecule, the “(IC50 CDK12 high ATP) to (Degradation DC50 CDK12) ratio” value in assay [4] is listed as over 14143.

Regarding `Brc1cnn2c(NCc3nc4ccccc4[nH]3)nc(N3CC4CCC3CN4)nc12` (stereo not shown) [Example 220, N-(1H-benzimidazol-2-ylmethyl)-8-bromo-2-(2,5-diazabicyclo[2.2.2]octan-2-yl)pyrazolo[1,5-a][1,3,5]triazin-4-amine], the IC50 came to 7.04 nM in assay [1], 21.2 nM in assay [2] and 4.18 nM in assay [3]. Moreover, the DC50 in assay [4] was 4.21 nM. The “(IC50 CDK12 high ATP) to (Degradation DC50 CDK12) ratio” value in assay [4] worked out at 1318.

With `O[C@H]1CCN(c2nc(NCc3nc4ccccc4[nH]3)n3ncc(Br)c3n2)C1` [Example 224, (3S)-1-(4-{[(1H-benzimidazol-2-yl)methyl]amino}-8-bromopyrazolo[1,5-a][1,3,5]triazin-2-yl)pyrrolidin-3-ol], the IC50 in assay [1] amounted to 57 nM; in assay [2] it was 128 nM; in assay [3], 21.2 nM. In assay [4], the DC50 turned out to be 38.4 nM. The “(IC50 CDK12 high ATP) to (Degradation DC50 CDK12) ratio” value in assay [4] was 407.

`CN1CCN(c2nc(NCc3nc4ccccc4[nH]3)n3ncc(-c4ccncc4)c3n2)CC1` [Example 242, N-[(1H-benzimidazol-2-yl)methyl]-2-(4-methylpiperazin-1-yl)-8-(pyridin-4-yl)pyrazolo[1,5-a][1,3,5]triazin-4-amine]: the IC50 is 857 nM in assay [1], 253 nM in assay [2] and 514 nM in assay [3]. Moreover, the DC50 in assay [4] stood at 107 nM. Besides, in assay [4], the “(IC50 CDK12 high ATP) to (Degradation DC50 CDK12) ratio” value was over 188.

Turning to `CO[C@@H]1CCN(c2nc(NCc3nc4ccccc4[nH]3)n3ncc(Br)c3n2)C1` [Example 223, N-[(1H-benzimidazol-2-yl)methyl]-8-bromo-2-[(3R)-3-methoxypyrrolidin-1-yl]pyrazolo[1,5-a][1,3,5]triazin-4-amine], the values for the IC50 in assay [1], in assay [2] and in assay [3] were 270 nM, 349 nM and 86.5 nM, respectively. Also, the DC50 in assay [4] turned out to be 57.6 nM. The “(IC50 CDK12 high ATP) to (Degradation DC50 CDK12) ratio” value in assay [4] was over 287.

With `C[C@@H]1CN(c2nc(NCc3nc4c(F)cccc4[nH]3)n3ncc(C4CC4)c3n2)C[C@H](C)N1` [Example 186, 8-cyclopropyl-2-[(3R,5S)-3,5-dimethylpiperazin-1-yl]-N-[(4-fluoro-1H-benzimidazol-2-yl)methyl]pyrazolo[1,5-a][1,3,5]triazin-4-amine], the IC50 stood at 4.2 nM in assay [1], 4.94 nM in assay [2] and 1.49 nM in assay [3]. Moreover, the DC50 in assay [4] stood at 0.226 nM. Also, the “(IC50 CDK12 high ATP) to (Degradation DC50 CDK12) ratio” value in assay [4] is recorded as 12018.
